This note sets out measurements from patent publication US20200270237A1 (priority 2017, published 2020).

Experiment [1] has as its target Human α2δ-1 Subunit of Cav2.2 Calcium Channel (Homo sapiens, UniProt P54289). Briefly: biochemical. It counts as binding.
In a further experiment the target is human μ-opioid receptor (Homo sapiens, UniProt P35372). As to the kind of experiment: biochemical. Type of experiment: binding.

Like-named read-outs stand apart in the source and are kept apart here.

Chain of human μ-opioid receptor (P35372 whole entry): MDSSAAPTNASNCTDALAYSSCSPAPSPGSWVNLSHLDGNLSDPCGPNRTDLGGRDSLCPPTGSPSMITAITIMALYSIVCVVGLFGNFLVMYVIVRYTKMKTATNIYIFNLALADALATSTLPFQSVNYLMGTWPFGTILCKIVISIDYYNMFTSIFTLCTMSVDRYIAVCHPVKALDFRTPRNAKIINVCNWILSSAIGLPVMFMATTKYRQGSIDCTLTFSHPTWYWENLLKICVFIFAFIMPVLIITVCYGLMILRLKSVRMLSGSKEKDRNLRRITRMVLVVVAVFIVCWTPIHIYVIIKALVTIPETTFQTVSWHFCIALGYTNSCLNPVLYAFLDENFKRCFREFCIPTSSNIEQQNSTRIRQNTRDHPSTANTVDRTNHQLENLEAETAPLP
Chain of Human α2δ-1 Subunit of Cav2.2 Calcium Channel (P54289 25-1103): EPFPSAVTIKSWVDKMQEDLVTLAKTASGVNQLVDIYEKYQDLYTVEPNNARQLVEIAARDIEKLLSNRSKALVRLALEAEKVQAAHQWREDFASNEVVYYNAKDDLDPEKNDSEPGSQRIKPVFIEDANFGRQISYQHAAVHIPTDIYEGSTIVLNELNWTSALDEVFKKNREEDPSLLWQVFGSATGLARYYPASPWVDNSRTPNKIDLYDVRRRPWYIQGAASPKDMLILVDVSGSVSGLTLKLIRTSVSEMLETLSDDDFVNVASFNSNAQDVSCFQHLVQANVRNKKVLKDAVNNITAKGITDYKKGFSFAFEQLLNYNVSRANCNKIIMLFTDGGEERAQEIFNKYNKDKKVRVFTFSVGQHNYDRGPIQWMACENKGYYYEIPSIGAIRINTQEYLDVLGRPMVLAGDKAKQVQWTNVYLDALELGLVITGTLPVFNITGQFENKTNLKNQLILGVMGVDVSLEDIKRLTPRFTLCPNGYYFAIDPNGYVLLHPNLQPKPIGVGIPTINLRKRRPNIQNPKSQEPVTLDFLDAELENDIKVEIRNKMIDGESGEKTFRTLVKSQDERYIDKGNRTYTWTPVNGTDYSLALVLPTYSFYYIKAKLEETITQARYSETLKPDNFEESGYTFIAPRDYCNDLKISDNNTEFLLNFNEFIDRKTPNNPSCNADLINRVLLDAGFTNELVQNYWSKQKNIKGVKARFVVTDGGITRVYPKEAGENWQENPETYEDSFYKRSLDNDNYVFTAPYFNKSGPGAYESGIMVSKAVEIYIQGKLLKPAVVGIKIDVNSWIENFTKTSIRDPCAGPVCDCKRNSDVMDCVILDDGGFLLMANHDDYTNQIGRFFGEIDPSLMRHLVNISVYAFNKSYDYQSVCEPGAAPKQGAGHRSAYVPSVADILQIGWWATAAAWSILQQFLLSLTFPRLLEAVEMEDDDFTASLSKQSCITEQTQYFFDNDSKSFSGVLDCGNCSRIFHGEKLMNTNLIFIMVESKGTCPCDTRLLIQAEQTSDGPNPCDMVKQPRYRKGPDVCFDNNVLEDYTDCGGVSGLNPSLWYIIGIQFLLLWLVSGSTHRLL

As to `CNCC[C@H](OCc1cccc(CN2CCC(c3ccccc3)(N(C)C)CC2)c1)c1ccccc1` [Example 27, (S)-N,N-dimethyl-1-(3-((3-(methylamino)-1-phenylpropoxy)methyl)benzyl)-4-phenylpiperidin-4-amine], the Ki in experiment [1] was > 3000 nM; on human μ-opioid receptor it was < 100 nM.
For the compound `CNCCC(OCc1cccc(N2CCc3ccccc3C2=O)c1)c1cccs1` (stereo not drawn) [Example 32, 2-(3-((3-(Methylamino)-1-(thiophen-2-yl)propoxy)methyl)phenyl)-3,4-dihydroisoquinolin-1(2H)-one], the Ki in experiment [1] was in the range of 500 to 3000 nM; on human μ-opioid receptor, 100 to 500 nM.
For the compound `CNCCC(OCc1cccc(N2CCNc3ccccc32)c1)c1ccccc1` (stereo not drawn) [Example 47, 3-((3-(3,4-Dihydroquinoxalin-1(2H)-yl)benzyl)oxy)-N-methyl-3-phenylpropan-1-amine], the Ki was > 3000 nM in experiment [1] (read-out: Ki (nM) alpha2delta Hum) and > 1000 nM at human μ-opioid receptor (read-out: MU Ki).
